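A five-concentration, 48-hour dose response in 96-well plates underlies each endpoint, interpolated linearly between surrounding concentrations. At the TGI there is no net growth.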 Residues, ends and D or L forms follow the SMILES beside them. *: point of attachment. Boc = CC(C)(C)OC(=O)*; OBn = c1ccc(CO*)cc1
Legend:
Experiment in all cases: NCI tumour cell line growth inhibition, 48 h
SK-MEL-5 melanoma = test system: SK-MEL-5 melanoma
OVCAR-8 ovarian = test system: OVCAR-8 ovarian
786-0 renal = test system: 786-0 renal
SF-268 CNS = test system: SF-268 CNS
RXF 393 renal = test system: RXF 393 renal
ACHN renal = test system: ACHN renal
SK-MEL-28 melanoma = test system: SK-MEL-28 melanoma
UO-31 renal = test system: UO-31 renal
SNB-19 CNS = test system: SNB-19 CNS
LOX IMVI melanoma = test system: LOX IMVI melanoma
HCT-116 colon = test system: HCT-116 colon
A549 NSCLC = test system: A549 NSCLC
OVCAR-5 ovarian = test system: OVCAR-5 ovarian
HT29 colon = test system: HT29 colon
KM12 colon = test system: KM12 colon
SW-620 colon = test system: SW-620 colon
A498 renal = test system: A498 renal
NCI/ADR-RES ovarian = test system: NCI/ADR-RES ovarian
PC-3 prostate = test system: PC-3 prostate

SMILES	TGI (SK-MEL-5 melanoma) [µM]	TGI (OVCAR-8 ovarian) [µM]	TGI (786-0 renal) [µM]	TGI (SF-268 CNS) [µM]	TGI (RXF 393 renal) [µM]	TGI (ACHN renal) [µM]	TGI (SK-MEL-28 melanoma) [µM]	TGI (UO-31 renal) [µM]	TGI (SNB-19 CNS) [µM]	TGI (LOX IMVI melanoma) [µM]	TGI (HCT-116 colon) [µM]	TGI (A549 NSCLC) [µM]	TGI (OVCAR-5 ovarian) [µM]	TGI (HT29 colon) [µM]	TGI (KM12 colon) [µM]	TGI (SW-620 colon) [µM]	TGI (A498 renal) [µM]	TGI (NCI/ADR-RES ovarian) [µM]	TGI (PC-3 prostate) [µM]
COc1ccc(/C(Cl)=C(\c2ccc(OCCN(C)C)cc2)c2ccc(OC(=O)C(C)(C)C)cc2)cc1	27	30.4	22.6	28.2	21.7	29.5	23.1	19.3	29.5	19.4	24.4	28.3	29.1	11.5	26.4	28.6	–	–	–
CSc1nc(NC2OC(COC(C)=O)C(OC(C)=O)C(OC(C)=O)C2OC(C)=O)c(-c2csc(N)n2)c(=O)n1C (stereo unspecified)	> 100	86.9	39.4	> 100	–	> 100	> 100	> 100	> 100	> 100	> 100	> 100	> 100	> 100	> 100	> 100	> 100	–	–
CC1=C(Cl)C=CP(=O)(OC(C)C)C1 (stereo unspecified)	> 100	> 100	> 100	> 100	> 100	> 100	> 100	> 100	–	–	> 100	> 100	> 100	> 100	> 100	> 100	> 100	–	–
CC1(C)OCC([C@H]2CC23SCCCS3)O1 (stereo partly specified)	> 100	> 100	> 100	> 100	> 100	> 100	> 100	> 100	> 100	–	> 100	> 100	> 100	> 100	> 100	–	> 100	–	–
Cc1ccc(N=NN(C)C(=O)C(C)N)cc1 (stereo unspecified)	> 100	> 100	> 100	> 100	> 100	> 100	> 100	> 100	> 100	> 100	> 100	–	> 100	> 100	> 100	> 100	–	> 100	> 100
Cc1cc(=O)[nH]c(NNC(C#N)c2c(O)ccc3ccccc23)n1 (stereo unspecified)	13	68.2	79.8	40.7	23.6	13	68.3	9.92	–	22.4	17.1	18.5	82.7	88.4	17.3	29.9	–	–	–
CC(C)CC(NC(=O)OC(C)(C)C)C(=O)N1CCCC1C(=O)OCc1ccccc1 (stereo not drawn) (Boc-Leu-Pro-OBn; configuration not given here)	> 100	> 100	> 100	> 100	> 100	> 100	> 100	> 100	> 100	> 100	> 100	> 100	> 100	> 100	> 100	> 100	> 100	> 100	> 100
CC1(S)CC2C(CC1Sc1ccccc1)C2(C)C (stereo unspecified)	> 100	> 100	> 100	> 100	–	> 100	> 100	> 100	–	–	> 100	> 100	> 100	> 100	> 100	–	–	–	–
O=S(=O)(c1ccccc1)n1cc(C[P+](c2ccccc2)(c2ccccc2)c2ccccc2)c2ccccc21	3.29	12.6	16.3	18.6	20.3	28.7	14.2	13.1	6.77	13.6	15.2	24.8	32.2	13.4	13.1	17.1	30	–	–
CCN(CC)CCCNc1nc(=O)[nH]c(C)c1C(=O)Nc1ccc2c(c1)c1ccccc1n2CC	> 100	> 100	> 100	–	> 100	> 100	> 100	> 100	> 100	> 100	> 100	> 100	> 100	> 100	> 100	> 100	–	> 100	> 100
CCOC(=O)[C@H]1Nc2ccc([N+](=O)[O-])cc2C2c3ccccc3CC21 (stereo partly specified)	30.7	56.1	43.9	38.5	18.3	72.3	31.9	44	> 100	33.2	37.9	91.2	70.4	35.4	> 100	41.6	–	–	–
CNS(=O)(=O)NN(C)S(=O)(=O)c1ccc2ccccc2c1	> 100	> 100	> 100	–	> 100	> 100	–	> 100	–	> 100	> 100	> 100	–	> 100	> 100	> 100	> 100	–	–
CC(=O)C(CN(C)C)C(c1ccccc1)c1c(O)c2ccccc2oc1=O (stereo unspecified)	> 100	> 100	> 100	> 100	> 100	> 100	> 100	–	> 100	> 100	> 100	> 100	> 100	> 100	> 100	> 100	–	–	–
NCCCCC(=O)c1cccnc1	> 100	> 100	> 100	> 100	–	–	> 100	> 100	> 100	> 100	> 100	> 100	> 100	> 100	> 100	> 100	> 100	–	–
NC(=O)N/N=C(/Cc1nc2ccc(C(=O)c3ccccc3)cc2[nH]c1=O)C(=O)Nc1ccc(C(F)(F)F)cc1[N+](=O)[O-]	> 100	> 100	> 100	> 100	–	> 100	> 100	> 100	> 100	> 100	> 100	> 100	> 100	> 100	> 100	> 100	> 100	–	–
COc1ccc2c(c1)CC1c3c(ccc(OC)c3O)CC2N1C (stereo unspecified)	32.7	> 81.3	> 73.3	> 100	43.6	> 100	43.8	> 100	> 100	38.9	47.3	> 100	> 100	57.5	> 89.8	45.4	> 100	–	–
C[C@@H]1C2=CC[C@@]3(C)C(CCC3[C@H](C)[C@H]3C[C@@]4(C)O[C@@](c5cccnc5)(O3)OC4(C)C)[C@@H]2C2OC2[C@@]12CCC(=O)O2 (stereo partly specified)	78.1	> 100	> 100	> 100	–	> 100	> 100	97.1	> 100	> 100	> 100	> 100	> 100	> 100	> 100	> 100	> 100	–	–
NC(=O)C(=O)C(c1ccccc1)S(=O)(=O)Cc1ccccc1 (stereo unspecified)	> 100	> 100	> 100	> 100	> 100	> 100	> 100	> 100	> 100	> 100	> 100	> 100	> 100	> 100	> 100	> 100	–	> 100	> 100
O=S(=O)([O-])[O-].[Cl-].[NH2-].[NH2-].[NH2-].[NH2-].[Ru+3].c1ccncc1	> 100	> 100	> 100	> 100	–	> 100	> 100	> 100	–	> 100	> 100	> 100	> 100	> 100	> 100	> 100	> 100	–	–
O=C(Nc1cc(Cl)cc(Cl)c1)/C(Cc1nc2ccccc2[nH]c1=O)=N/NC(=O)c1ccncc1	> 100	> 100	> 100	–	–	> 100	–	> 100	> 100	> 100	> 100	> 100	> 100	–	> 100	> 100	> 100	–	–
O=S1(=O)CCCS(=O)(=O)C(c2ccccc2)=C1c1ccccc1	> 100	> 100	> 100	> 100	–	> 100	> 100	> 100	–	> 100	> 100	> 100	> 100	> 100	79	> 100	> 100	–	–
CCCCCCCCCCCCCCCC(=O)OCC1OC(OC)C2NP(=O)(N(CCCl)CCCl)OC1C2O (stereo unspecified)	38	13.5	3.85	14.8	3.99	40.6	61.1	35.1	65.6	6.58	11.5	39.9	59.2	> 66.8	41.9	17.4	34.7	–	18.9
